Patent US10975043B2, “Heterocyclic compound” (TAKEDA PHARMACEUTICAL COMPANY LIMITED, priority 2014, dated 2021)

Columns and labels:
RBP4 [1] = molecular target: T1, RBP4 (Homo sapiens, UniProt P02753); assay: Binding assay by Retinol-RBP4-TTR ELISA; parameters: the culture supernatant containing secreted hRBP4-His was recovered; made in house; host or cells: FreeStyle 293 expression system (Invitrogen), secreted into the culture supernatant; conditions: 10 μM compound; retinol 50 nM; His-tagged human RBP4, biotinylated human TTR; read-out: human RBP4 binding inhibitory activity (% at 10 μM)
Protocol: Using the Retinol-RBP4-TTR ELISA system shown below, the action of the compound of the present invention to inhibit the binding of RBP4 and retinol and TTR was evaluated.
1F: Binding Assay by Retinol-RBP4-TTR ELISA
This ELISA system detects a complex with RBP4 and TTR based on the retinol dependent binding of RBP4 to TTR.
The His-tagged human RBP4 used was prepared in the above-mentioned 1C.
The biotinylated human TTR used was prepared in the above-mentioned 1E.
Streptavidin (20 μl) (10 μg/ml Streptavidin type II (Wako Pure Chemical Industries, Ltd.), 10 mM Tris-HCl (pH 7.5), 10 mM NaCl) was added to a 384 well blackplate (Nunc MaxiSorp, Thermo Fisher Scientific Inc.), and the plate was centrifuged (1000 rpm, 1 min) and coated at 4° C. overnight. The plate was washed twice with PBST (PBS, 0.05% Tween 20, 100 μl/well), and blocked with 25% Block Ace (Snow Brand Milk Products Co., Ltd., PBS, 100 μl/well). The plate was subjected to centrifugation (1000 rpm, 1 min), and incubated at room temperature for 4 hr or 4° C. overnight. The plate was washed twice with PBST (PBS, 0.05% Tween 20, 100 μl/well), and biotinylated human TTR (stock solution concentration 1.0 mg/ml) diluted 750-fold with PBST was added at […]. The plate was subjected to centrifugation (1000 rpm, 1 min), and further stood at room temperature for 1.5 hr or 4° C. overnight. The plate was washed 3 times with PBST (100 μl/well), and His-tagged human RBP4 (stock solution concentration 1.28 mg/ml) diluted 4000-fold with a reaction buffer (50 mM Tris-HCl, 150 mM NaCl, 0.005% Tween 20, 1 mM DTT, 0.1% BSA) was added at 10 μl/well. The dilution of the compound (200-fold concentration) was prepared with DMSO, and 1.6 μl each was added to a reaction buffer (320 μl) containing retinol (50 nM) (Sigma-Aldrich Co.). A reaction buffer (320 μl) containing retinol and added with DMSO was used as a positive control, and a reaction buffer (320 μl) not containing retinol and added with DMSO was used as a negative control. A mixed solution of retinol and the compound was added to the plate at 15 μl/well. The plate was stirred in a plate mixer, centrifuged (1000 rpm, 1 min), and reacted at room temperature for 2 hr. Anti-His HRP-conjugated antibody (QIAGEN) solution diluted with a reaction buffer was added at 10 μl/well, centrifuged (1000 rpm, 1 min), and reacted at room temperature for 30 min. The plate was washed 3 times with PBST (100 μl/well), SuperSignal ELISA Femto Maximum Sensitivity Substrate reagent (PIERCE, Thermo Fisher Scientific Inc.) was added at 30 μl/well, and the luminescence was measured by a plate reader (Envision).
The binding inhibitory activity of the compound was determined by 100×(positive control value−test compound value)/(positive control value−negative control value).

[2] = system: A2E in the eyeball of ABCA4 KO mouse; assay: Suppression of A2E accumulation in the eyeball of ABCA4 KO mouse, A2E by HPLC; type: in vivo; conditions: 8 or 12 weeks
Protocol: The suppressive action for accumulation of retinoid metabolite bis-retinoid N-retinylidene-N-retinylethanolamine (A2E) in the eyeball, of the compound of the present invention, was evaluated using ATP-binding cassette A4 knockout (ABCA4 KO) mouse. A2E is the major constituent component of Lipofuscin in the eyeball, and is involved in the onset and pathology progression in atrophic age-related macular degeneration and Stargardt's disease. ABCA4 KO mouse was confirmed to show remarkable accumulation of A2E, Lipofuscin along with aging, and is known as an animal model of atrophic age-related macular degeneration and Stargardt's disease.
8-Week-old male ABCA4 KO mice were randomly grouped, and 0.5% methylcellulose solution was orally administered to the control group, and 0.5% methylcellulose suspension of a compound at a dose shown in the following Table was orally administered to the test compound group, each once per day at 10 mL/kg. Each group contained 6 or 7 mice. After repetitive administration for 8 or 12 weeks, eyeball was isolated under anesthesia.
In the eyeball, A2E was measured by the HPLC method. A2E reference standard was synthesized from all-trans retinal, ethanolamine in acetic acid-added ethanol. First, 0.3 mL of PBS and zirconia beads were added to the eyeball, and homogenate was prepared using Mixer Mill MM 300 (QIAGEN). A chloroform:methanol (2:1) solution (0.8 mL) was added and the mixture was stirred for […]. The lower layer was separately taken in a different tube, the chloroform:methanol (2:1) solution (0.6 mL) was further added and the mixture was stirred for 5 min. The lower layer was combined with one separated earlier, and dried to solidness by blowing nitrogen gas. 0.05 mL of 85% acetonitrile solution was added and the mixture was stirred to give a measurement sample. For HPLC, Alliance e2695 and Photo diode array 2998 (PDA) (Waters) were used, and Empower 2 was used as an analysis software. The column used was Atlantis dC18 (3 μm, 3.9×150 mm) (Waters), and the column temperature was set to 40° C. […] Quantification was performed at ultraviolet absorbance at 440 nm by PDA.

RBP4 [3] = molecular target: T2, RBP4 (Mus musculus, UniProt Q00724); assay: Blood RBP4-lowering action in C57BL/6J mouse, plasma RBP4 by ELISA; type: in vivo; conditions: mean±SD, n=4 or 5
T2 construct: from tissue; host or cells: plasma of male C57BL/6J mice (Japan Charles River)
Protocol: The blood RBP4-lowering action of the compound of the present invention was evaluated using C57BL/6J mouse.
Male 7- to 10-week-old C57BL/6J mice (Japan Charles River) were acclimation reared under free food ingestion conditions on CE-2 solid feed (CLEA Japan, Inc.) for 4 to 6 days, and randomly grouped (4 or 5 per group). On the day of the test, blood samples were collected from the tail vein, and plasma was separated (0 hr value). Thereafter, a test compound (Example 1, 2, 3, 4, 5, 6, 7 or 8) was orally administered at a dose of 3 mg/kg or 10 mg/kg (solvent: 0.5% methylcellulose solution (10 mL/kg)). At 8 and 24 hr after the compound was administered, blood samples were collected from the tail vein and plasma was separated. A 0.5% methylcellulose solution (10 mL/kg) was orally administered to the control group.
The amount of RBP4 in the collected plasma was measured by the ELISA method. Using rabbit anti-mouse RBP4 polyclonal antibody (Hokudo Co., Ltd.), RBP4 was quantified by the following process. A 96 well ELISA plate was coated with 50 μg/mL antibody (100 μL), and stood at 4° C. overnight or at room temperature for 2 hr. After blocking with BlockAce (Dainippon Pharmaceutical Co., Ltd.), 100 μL of mouse RBP4 or sample was added and the plate was stood at room temperature for 2 hr, washed with PBS-0.5% Tween20, added with HRP-labeled anti-RBP4 antibody (prepared by labeling RBP4 polyclonal antibody (Hokudo Co., Ltd.) with HRP (DOJINDO LABORATORIES)) (100 μL), and stood at room temperature for 1 hr. After washing, TMB (Sigma) was added at room temperature for 20 min to allow for color development. The reaction was quenched with 2N sulfuric acid and the absorbance at A450 nm was measured by a platereader. Variation from the initial value of each individual was taken as the relative value to the control group (initial value/control value, %) at each time point. The results are shown below in mean±standard deviation (n=4 or 5).

RBP4 [4] = molecular target: T1, RBP4; conditions: consequently inhibits formation of a complex with TTR; cited from earlier work
RBP4 [5] = conditions: administration to an animal; cited from earlier work

inhibition at 10 µM (RBP4 [1])	RBP4 (initial value/control value %) 8 hr later (RBP4 [3]; 10 mg/kg single oral dose)	RBP4 (initial value/control value %) 24 hr later (RBP4 [3]; 10 mg/kg single oral dose)	SMILES	further results
100%	20.70 ± 1.55%	49.64 ± 10.48%	O=C(O)CCn1ccc(-c2cc(C(F)(F)F)cc(C(F)(F)F)c2)n1 [Example 3, 3-(3-(3,5-bis(trifluoromethyl)phenyl)-1H-pyrazol-1-yl)propanoic acid]	A2E (% of control value) ([2]; 10 mg/kg oral once per day): 73.90 ± 15.58 % of control value
100%	–	–	O=C(O)COc1nc(-c2cc(C(F)(F)F)cc(C(F)(F)F)c2)co1 [Example 4, ((4-(3,5-bis(trifluoromethyl)phenyl)-1,3-oxazol-2-yl)oxy)acetic acid]	A2E (% of control value) ([2]; 1 mg/kg oral once per day): 79.47 ± 14.53 % of control value; RBP4 (initial value/control value %) 8 hr later (RBP4 [3]; 3 mg/kg single oral dose): 19.86 ± 11.85%; RBP4 (initial value/control value %) 24 hr later (RBP4 [3]; 3 mg/kg single oral dose): 54.29 ± 19.15%
–	43.66 ± 4.92%	71.75 ± 8.77%	COC(=O)COc1ccc(-c2cc(C(F)(F)F)cc(C(F)(F)F)c2)nc1 [Example 7, methyl 2-((6-(3,5-bis(trifluoromethyl)phenyl)pyridin-3-yl)oxy)acetate]	–
98%	37.25 ± 11.45%	61.81 ± 14.79%	O=C(O)COc1cnc(-c2cc(C(F)(F)F)cc(C(F)(F)F)c2)nc1 [Example 1, ((2-(3,5-bis(trifluoromethyl)phenyl)pyrimidin-5-yl)oxy)acetic acid]	–
–	–	–	CC1=C(/C=C/C(C)=C/C=C/C(C)=C/C(=O)Nc2ccc(O)cc2)C(C)(C)CCC1 [fenretinide, 4-hydroxy(phenyl)retinamide]	binding of RBP4 and retinol (RBP4 [4]): inhibits binding of RBP4 and retinol; blood RBP4 (RBP4 [5]): induces lowering of blood RBP4
100%	–	–	O=C(O)COc1ccn(-c2cc(C(F)(F)F)cc(C(F)(F)F)c2)n1 [Example 5, ((1-(3,5-bis(trifluoromethyl)phenyl)-1H-pyrazol-3-yl)oxy)acetic acid]	A2E (% of control value) ([2]; 3 mg/kg oral once per day): 59.10 ± 10.33 % of control value; RBP4 (initial value/control value %) 8 hr later (RBP4 [3]; 3 mg/kg single oral dose): 32.14 ± 6.82%; RBP4 (initial value/control value %) 24 hr later (RBP4 [3]; 3 mg/kg single oral dose): 36.20 ± 1.87%
–	58.17 ± 8.61%	79.70 ± 5.22%	CCOC(=O)COc1cnc(-c2cc(C(F)(F)F)cc(C(F)(F)F)c2)nc1 [Example 6, ethyl 2-((2-(3,5-bis(trifluoromethyl)phenyl)pyrimidin-5-yl)oxy)acetate]	–
99%	23.93 ± 5.84%	64.87 ± 16.79%	O=C(O)COc1ccc(-c2cc(C(F)(F)F)cc(C(F)(F)F)c2)nc1 [Example 2, ((6-(3,5-bis(trifluoromethyl)phenyl)pyridin-3-yl)oxy)acetic acid]	A2E (% of control value) ([2]; 10 mg/kg oral once per day): 77.63 ± 9.06 % of control value
